Test results taken from PubChem BioAssay (NCI).
Values joined by “and” are separate entries in the source; they are usually repeats but may differ in a detail not shown here. Identical values can stand only once.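 A five-concentration, 48-hour dose response in 96-well plates underlies each endpoint, interpolated linearly between surrounding concentrations. GI50 is the concentration that inhibits growth by half. The concentration for full growth arrest is given as TGI.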 Where a SMILES comes first, the peptide text is derived from it. Side-chain parts run from the residue outwards. [ ]: non-standard residue; d: D form. The star is where a group is joined. X28 = COC1=CC(=O)N(C(=O)[C@@H](O*)C(C)C)[C@H]1Cc1ccccc1; NMeL = CN[C@@H](CC(C)C)C(=O)O; Cbz = O=C(OCc1ccccc1)*; Boc = CC(C)(C)OC(=O)*

Key:
Assay in all cases: NCI anticancer screen, dose series, 48 h
UACC-62 melanoma = system: UACC-62 melanoma
SF-268 CNS = system: SF-268 CNS
SR leukemia = system: SR leukemia
SK-MEL-5 melanoma = system: SK-MEL-5 melanoma
COLO 205 colon = system: COLO 205 colon
NCI-H522 lung = system: NCI-H522 lung
CAKI-1 renal = system: CAKI-1 renal
IGROV1 ovarian = system: IGROV1 ovarian
PC-3 prostate = system: PC-3 prostate
A549 NSCLC = system: A549 NSCLC
SK-MEL-2 melanoma = system: SK-MEL-2 melanoma

SMILES	TGI (UACC-62 melanoma)	GI50 (SF-268 CNS)	TGI (SF-268 CNS)	TGI (SR leukemia)	TGI (SK-MEL-5 melanoma)	GI50 (COLO 205 colon)	TGI (COLO 205 colon)	TGI (NCI-H522 lung)	TGI (CAKI-1 renal)	GI50 (IGROV1 ovarian)	TGI (IGROV1 ovarian)	TGI (PC-3 prostate)	TGI (A549 NSCLC)	TGI (SK-MEL-2 melanoma)	GI50 (SR leukemia)	GI50 (NCI-H522 lung)	GI50 (SK-MEL-2 melanoma)	GI50 (CAKI-1 renal)
COc1ccc(-c2c(C(C)=O)c(-c3ccccc3)n(C3OC(COC(C)=O)C(OC(C)=O)C(OC(C)=O)C3OC(C)=O)c(=S)c2C#N)cc1O (stereo unspecified)	53.6 µM and > 100 µM	32.6 µM and 76.2 µM	> 100 µM	> 100 µM	> 100 µM	21 µM and 47.7 µM	57.5 µM and > 100 µM	35.9 µM and 47.7 µM	> 100 µM	12.4 µM and 38.2 µM	35.6 µM and > 100 µM	> 100 µM	> 100 µM					
CC(=N\N=C\c1ccccn1)/C(C)=N/N=C/c1ccccn1			> 100 µM	> 100 µM	> 100 µM		> 100 µM	> 100 µM	> 100 µM		> 100 µM	> 100 µM	> 100 µM	> 100 µM				
CC1(C)CC(=O)C2=C(C1)N(c1ccccc1)C1(O)C=CC(=O)C3=C(O)c4ccccc4C(=O)C321 (stereo unspecified)	63.5 µM		52.1 µM	56.4 µM			> 100 µM	45.8 µM	86 µM		75.5 µM	63.5 µM	> 100 µM	60.9 µM				
CCCCCCCCCCCCCCCCCCNC(=S)/N=C/c1c(O)cc(C)oc1=O	> 100 µM				> 100 µM		> 100 µM		64.1 µM		55.8 µM	69.8 µM	69.5 µM	52.1 µM				
OC(C1CCCC1=N/N=C1/CCCC1C(O)(C(F)(F)Cl)C(F)(F)Cl)(C(F)(F)Cl)C(F)(F)Cl (stereo unspecified)	> 10 µM		> 10 µM		> 10 µM		> 10 µM	> 10 µM	> 10 µM		> 10 µM	> 10 µM	> 10 µM	> 10 µM				
COC1=CC(=O)N(C(=O)[C@@H](OC(=O)[C@@H]2CCCN2C(=O)[C@@H]2CCCN2C(=O)[C@H](CC(C)C)N(C)C(=O)[C@@H](NC(=O)[C@@H](NC(=O)OCc2ccccc2)C(C)C)C(C)C)C(C)C)[C@H]1Cc1ccccc1 (Cbz-VV[NMeL]PP-X28)	> 100 µM		> 100 µM				> 100 µM	> 100 µM	> 100 µM		> 100 µM	76.8 µM	> 100 µM	28.6 µM				
CC(C)CC(NC(=O)OCc1ccccc1)C(=O)NCCCCC(NC(=O)C(CCCCNC(=O)C(CC(C)C)NC(=O)OCc1ccccc1)NC(=O)C(CCCCNC(=O)C(CC(C)C)NC(=O)OCc1ccccc1)NC(=O)C(CCCCNC(=O)C(CC(C)C)NC(=O)OCc1ccccc1)NC(=O)OC(C)(C)C)C(=O)O (stereo unspecified) (Boc-K([Leu-Cbz])K([Leu-Cbz])K([Leu-Cbz])K([Leu-Cbz])-OH; configuration not given here)	> 25 µM		> 25 µM	> 25 µM	> 25 µM			> 25 µM	> 25 µM		> 25 µM	> 25 µM	> 25 µM	> 25 µM				
O=C(O)C1C2CCC(C2)C1c1ccccc1 (stereo unspecified)	> 100 µM		> 100 µM	> 100 µM	> 100 µM		> 100 µM	> 100 µM	> 100 µM			> 100 µM	> 100 µM	> 100 µM				
Cc1noc(C)c1N=Nc1ccc2nonc2c1N	> 100 µM		> 100 µM	> 100 µM	> 100 µM		> 100 µM		> 100 µM		> 100 µM	> 100 µM	> 100 µM	> 100 µM				
COc1cc(C(=O)OC2CC(C)=CC[C@@]3(C)CC[C@](O)(C(C)C)C23)ccc1O (stereo partly specified)			38.7 µM	84.1 µM	32.8 µM		39 µM	28 µM	30.4 µM		33.4 µM	31.9 µM	27.7 µM	33.2 µM				
N#CCCCCC12C3C(=O)N(c4ccccc4)C(=O)C3ON1O[C@@H]1C(=O)N(c3ccccc3)C(=O)[C@@H]12 (stereo partly specified)	> 100 µM		> 100 µM		> 100 µM		> 100 µM	> 100 µM	> 100 µM		> 100 µM	> 100 µM	> 100 µM					
C/C(=N\Nc1ncnc2ccccc12)c1ccccn1	3.22 µM		7.2 µM		13.2 µM		17.9 µM	1.53 µM	1.67 µM		2.84 µM	31.6 µM	32.6 µM	33.9 µM				
CC(C)(CO)NC(=O)c1cccc(C(=O)NC(C)(C)CO)c1Br	> 100 µM		> 100 µM	> 100 µM	> 100 µM		> 100 µM		> 100 µM		> 100 µM	> 100 µM	> 100 µM	> 100 µM				
O=C(/C=C\c1ccc(OCCCCCC[P+](c2ccccc2)(c2ccccc2)c2ccccc2)cc1)c1ccc2c(c1)OCCO2		0.585 µM	3.19 µM	9.07 µM				4.42 µM	3.88 µM					3.9 µM	0.656 µM	0.885 µM	1.41 µM	1.84 µM
O=C1CSC(c2c(O)ccc3ccccc23)N1n1c(=S)[nH]nc(/C=C/c2c(O)ccc3ccccc23)c1=O (stereo unspecified)	10.1 µM		40.3 µM	10.9 µM				21 µM	11.4 µM		26.7 µM	22.5 µM	21.8 µM	15.1 µM				
O=C(O)c1ccc(/C=N\N(CCO)C2=NCCN2)cc1	> 100 µM		> 100 µM	> 100 µM	> 100 µM		> 100 µM				> 100 µM	> 100 µM	> 100 µM	> 100 µM				
CC(=O)O[C@@H]1CC2[C@@H](CCC3Cc4nc5c(nc4C[C@@]32C)CC2CC[C@@H]3C(CC[C@@]4(C)C3CC[C@@H]4C(C)CCCC(C)C)[C@@]2(C)C5)C2C[C@@H]3OC4(CCC(C)CO4)C(C)[C@@H]3[C@]21C (stereo partly specified)	50.1 µM		> 100 µM	> 100 µM	> 100 µM		> 100 µM	> 100 µM			> 100 µM	> 100 µM	> 100 µM					
COc1ccc(C2c3c(-c4ccccc4)nn(-c4ccccc4)c3Oc3ncn(N)c(=N)c32)cc1OC (stereo unspecified)	3.72 µM		10.4 µM	> 26.6 µM			3.53 µM	4.15 µM	4.15 µM		3.2 µM	4.08 µM	4.81 µM	3.51 µM				
COC(=O)Nc1nc2ccc(NS(=O)(=O)c3ccc(F)cc3)cc2[nH]1	> 100 µM		> 100 µM		> 100 µM		37.8 µM	7.68 µM	> 100 µM		9.93 µM	> 100 µM	> 100 µM	> 100 µM				
